From patent publication US10238688B2, “Combination therapies for bladder cancer” (GENEDIA BIOTECH CO. LTD., priority 2015, dated 2019)

How the values were obtained:
Type in all cases: in vivo, BALB/C male nude mice
[1] = tested on: UM-UC-3 derived tumor xenografts; experiment: UM-UC-3 tumor xenograft growth in nude mice
Protocol: (§1) Each experiment was performed three times. All animals were adult BALB/C male nude mice of 8-12 weeks of age and experiments were performed in accordance with the National Institutes of Health Guide for the Care and Use of Laboratory Animals and approved by the animal research committee of Harbin Medical University, China.
(§2) Cells (1×10^6-7th/100 μL) embedded in BD Matrigel™ Matrix were subcutaneously injected at three sites in the back of each mouse (3-4 mice per treatment). On day 7-12th following cell injection, the animals were treated with the different drugs by an intraperitoneal injection, which was repeated every three days. Tumor volumes were monitored/calculated using the equation V=W^2L×0.5 (where W and L represent the […] tumor diameters (mm)) and then plotted. The tumor mass mice were weighed, fixed/sliced for immunohistochemistry after sacrificing the animals.
(§3) Two sets of tumor xenograft/nude mice studies were carried out. The in vivo study involves […]. Both mean±S.D of tumor volume and mass were calculated. […]
(§4) This example then compared the in vivo anticancer activity of EH/Ci/Mi regimen with its mono- and bi-drug counterparts on the 5637, UM-UC-3, or Biu87 cells derived tumor xenografts in nude mice. […] The tumor volumes were measured once every three days and were normalized by the volume on day 7. […]

[2] = tested on: 5637 derived tumor xenografts; experiment: 5637 tumor xenograft growth in nude mice
Protocol: as §1, §2, §3, §4

[3] = tested on: Biu87 derived tumor xenografts; experiment: Biu87 tumor xenograft growth in nude mice
Protocol: as §1, §2, §3, §4

[4] = tested on: Ki67-positive cells in tumor xenografts; experiment: Ki67 immunohistochemistry of tumor xenografts; conditions: relative to PBS controls; day 28
Protocol: Immunostaining was performed on 5 μm slices of formalin fixed paraffin-embedded tumor xenografts using antibodies from Gene Tech Company (Shanghai, China) against both Ki67 and CD34. Pictures were taken by LEICA DM 4000B microscope and the relative level of each protein was calculated using LEICA software. The relative staining per antibody (in percentage) in the […] tumors was calculated and plotted.
This example then compared the in vivo anticancer activity of EH/Ci/Mi regimen with its mono- and bi-drug counterparts on the 5637, UM-UC-3, or Biu87 cells derived tumor xenografts in nude mice. Since there is no established conversion rule for the drug dose in cell culture to in nude mice, this example used 75 μg per mouse for the mono-drug treatments and 25 μg per drug per mouse for both bi-drug and tri-drug combinations, based on the maximum tolerated drug dose recommended for these drugs. To minimize the inter-mouse bias's effect on tumor growth, three different BCa cell line-derived tumor xenografts were individually established subcutaneously on the back of the twelve mice (FIG. 5A). […] The tumor volumes were measured once every three days and were normalized by the volume on day 7. […]

N.N.[Cl][Pt][Cl] [Ci, (SP-4-2)-diamminedichloroplatinum(II)]
relative tumor weight ([1]; UM-UC-3 derived tumor, day 28, tri-drug group taken as 1): 3.37
increase in tumor volume on day 28th (relative tumor volume) ([1]; UM-UC-3 xenograft, normalized by volume on day 7, i.p. at three-day interval, 75 μg per mouse mono-drug, 25 μg per drug per mouse combinations): 10.58
relative tumor weight ([2]; 5637 derived tumor, day 28, tri-drug group taken as 1): 1.79
relative tumor volume ([2]; 5637 xenograft, normalized by volume on day 7, i.p. at three-day interval, 75 μg per mouse mono-drug, 25 μg per drug per mouse combinations): 6.2
relative tumor weight ([3]; Biu87 derived tumor, day 28, tri-drug group taken as 1): 1.48
increase in tumor volume on day 28th (relative tumor volume) ([3]; Biu87 xenograft, normalized by volume on day 7, i.p. at three-day interval, 75 μg per mouse mono-drug, 25 μg per drug per mouse combinations): 4.95
percentage of Ki67-positive cells in tumor xenografts [4]: reduced
